Results reported in patent US20240109972A1, “ANTIBODY AND TAXANE COMBINATION THERAPY” (Genmab A/S, priority 2020, published 2024).

How the values were obtained:
interferon-gamma (IFN-γ) = assay: Serum interferon-γ levels in cancer patients after GEN1046 (MSD multiplex immunoassay); format: in vivo, human
Description: Serum levels of IFN-γ were measured by a Meso Scale Discovery (MSD) multiplex immune-assay (cat. no. K15209G) following the manufacturer's instructions.

[1] = system: effector memory CD8 T cells (CD8+CD45RA−CCR7− T cells); assay: Proliferating (Ki67+) effector memory CD8 T cells in peripheral blood of patients (flow cytometry); conditions: human, in vivo
Description: 100 μL of whole blood was added to fluorochrome-conjugated monoclonal antibodies that bind specifically to cell surface antigens: CD45RA-FITC (clone LEU-18, BD Biosciences cat. no. 335039), CCR7-BV510 (clone 3D12, BD Biosciences, cat. no. 563449), CD8-PerCP-Cy5.5 (clone RPA-T8, BD Biosciences, cat. no. 560662). After incubation on ice, the stained samples were treated with FACS Lysing Solution (BD Biosciences, Catalog No 349202) to lyse erythrocytes. Excess antibody and cell debris were removed by washing with Stain Buffer (BD Biosciences, cat. no. 554656). Following lyse/wash, cells were fixed and permeabilized by incubation with Permeabilizing Solution 2 buffer (BD Biosciences, cat. no. 340973). Next, cells were washed and resuspended in Stain Buffer and incubated on ice with antibody to Ki67 (BV421 B56, BD Biosciences, cat. no. 562899) to detect proliferating cells. After incubation, excess antibody was removed by washing with Stain Buffer. Cells were resuspended in Stain Buffer and acquired on a BD FACSCanto™ II flow cytometer (Becton Dickinson) within 1 hour of staining.

Substance: GEN1046: PD-L1×4-1BB bispecific antibody: PD-L1-547-FEAL combined with CD137-009-HC7LC2-FEAR (SEQ ID NOs: 1, 5, 21, 19; 8, 12, 22, 20)
- Dose levels with higher magnitude and consistent modulation of peripheral pharmacodynamic endpoints (interferon-gamma (IFN-γ); IFNγ and proliferating Ki67+ effector memory CD8+ T cells): ≥ 200 mg
- Dose levels with maximal increases of IFN-γ (interferon-gamma (IFN-γ); first treatment cycle): 50 mg and 80 mg
- Increase of IFN-γ levels (interferon-gamma (IFN-γ); first treatment cycle, across all dose levels tested): more than 2 fold
- Cohort with maximal and more consistent modulation of proliferating CD8+ effector memory T cells [1]: 80 mg
